{
  "source": "patent US5770563A",
  "about": "“Heparin- and sulfatide binding peptides from the type I repeats of human thrombospondin and conjugates thereof” (The United States of America as represented by the …, priority 1995, dated 1998)",
  "key": {"[1]": {"test_system": "AIDS-KS cells", "test": "AIDS-KS cell proliferation", "format": "cell-based, human", "protocol": "AIDS-KS cell strains were cultured as previously described (Nakamura, S. et al. \"Kaposi's Sarcoma Cells: Long-Term Culture with Growth Factor From Retrovirus-Infected CD4+T Cells\", Science, (1988) 242:426; and Salahuddin, S. Z. et al. \"Angiogenic Properties of kaposi's Sarcoma-Derived Cells After Long-Term Culture In Vitro\", Science (1988) 242:430). TSP was purified from thrombin-stimulated human platelets as described. TSP peptides and peptide conjugates were synthesized corresponding to sequences of human TSP as described.\nFor the cell proliferation assays 1×10^3 cells/well were seeded in triplicate in 24 well flat bottom plates (Falcon, Franklin Lakes, N.J.) that contained the required dilutions of TSP, TSP peptide-FICOLL conjugates, and growth factors: 1) Oncostatin M (OSM) (PreProtech) at 25 ng/ml, or 2) activated lymphocyte conditioned medium (AL-CM) at 20%. After 7 days, the cells were trypsinized and counted using a Coulter Zm Cell Counter (Coulter Corporation). The values are triplicate determinations and the bars indicate standard deviations, n=3."}, "[2]": {"test_system": "AIDS-KS cells", "test": "AIDS-KS cell chemotaxis, modified Boyden chamber", "format": "cell-based, human", "protocol": "Directed migration (chemotaxis) and general migration (chemokinesis) of AIDS-KS cells in culture was measured by the modified Boyden chamber assay using fibronectin coated […] Nucleopore filters as previously described. In brief, the AIDS-KS cells, were trypsinized then resuspended in RPMI 1640 containing […] (GIBCO-BRL) and 20% activated lymphocyte conditioned medium. The trypsinized cells were allowed to recover in suspension for 2 hours, then the cells were recovered by centrifugation and resuspended in RPMI 1640 containing 0.1% BS at 5×10^5 cells/ml prior to adding 100 μl to the upper wells in the chemotaxis chamber. Migration to BSA (0.1%) and OSM was performed in the presence of the indicated concentrations of TSP, and TSP peptide-FICOLL conjugates. After 3 hours incubation at 37° C. filters were stained with Diff Quick (Merz-Dade, Dudingen, Switzerland), and the migrated cells in ten high-power fields were counted. The values are triplicate determinations and the bars indicate standard deviations, n=3."}, "[3]": {"test_system": "thrombospondin binding to heparin", "test": "Inhibition of 125I-thrombospondin binding to immobilized heparin-BSA", "parameters": "species or system human", "outline": "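Solid-phase binding: heparin-BSA (0.2 μg/well) adsorbed 2 h at 37° in Dulbecco's PBS, blocked with tris-BSA. Peptides in 50 mM tris pH 7.8, NaCl, 1 mM CaCl2, 0.025% NaN3, 1% BSA mixed with 125I-thrombospondin (added at 0.2 μg/ml), 3 h at 4°; after saline washes, bound radioactivity counted.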"}, "[4]": {"test_system": "bovine aortic endothelial cells", "test": "Proliferation of bovine aortic endothelial cells", "format": "cell-based", "conditions": "free peptide, 40 μM", "protocol": "(§1) Endothelial cell proliferation was measured using the CELL TITER 96™ assay (Promega, Madison, Wis.). 5×10^3 cells were plated into each well of a 96-well culture plate in 0.5 or 5% FCS-containing medium together with the indicated concentrations of growth effectors. After 72 h, 15 μl of dye solution was added to each well, and the plates were incubated for an additional 4 h. Solubilization solution was added, and absorbance at 570 nm was determined after 24 h as described by the manufacturer.\nFICOLL conjugates of peptide 353 (SEQ ID NO:28) (GGWSHWSPWSSC), 354 (SEQ ID NO:29) (CGGWSHWSPWSS), 224 364 g (SEQ ID NO:30) and 387 (SEQ ID NO:30) (three syntheses of KRFKQDGGWSHWSPWSSC), or free FICOLL were tested at the indicated concentrations as inhibitors of proliferation of bovine aortic endothelial cells in DMEM medium containing 0.5% (FIG. 24A) or 5% (FIG. 24B) fetal calf serum. […] Therefore, the conjugates are general inhibitors of both large and small vessel endothelial cell proliferation. […]\nProliferation of bovine aortic endothelial cells was also determined for cells grown in the presence of the indicated concentrations of peptide 246 (KRFKQDGGWSHWSPWSS) (SEQ ID NO:19) or peptide 416 (retro-inverso) in RPMI-HITES (reg medium) or corresponding conditioned medium from MDA 435 breast carcinoma cells. […]"}, "[5]": {"test_system": "MDA MB435 breast carcinoma cells", "test": "MDA MB435 human breast carcinoma cell proliferation", "format": "cell-based", "conditions": "free peptide", "protocol": "Human breast carcinoma cells MDA MB435 (American Type Culture Collection) were grown in RPMI 1640 medium containing 10% fetal calf serum. Proliferation was determined as described in FIG. 18 and 44A, B and C.\nHuman breast carcinoma cells MDA MB435 (American Type Culture Collection) were grown in RPMI 1640 medium containing 10% fetal calf serum. Proliferation was determined in the presence of 0.5% fetal calf serum and bFGF as described in FIG. 19."}, "[6]": {"test_system": "MDA MB435 tumor", "test": "MDA MB435 orthotopic tumor growth in nude mice", "format": "in vivo, mouse", "protocol": "(§2) Tumor cells were allowed to implant for approximately one to three weeks prior to administering the peptide analog or a polysucrose conjugate. […] The inhibitory effect persisted beyond the treatment period, although the growth of the tumors eventually resumed.\nThe presented experiment consisted of two groups of animals. The objective was to test a peptide conjugate for effects on breast carcinoma growth. The treated animals were injected with MDA435 cells alone on day one and then injected intravenously with drugs from day 10 through approximately day 30. Tumor growth and frequency of metastasis were determined in both groups.\nNIH Nu/Nu mice, approximately eight weeks of age are injected with 10^5 MDA MB435 cells by the mammary fat pad route. Mice were anesthetized with 150-200 μl i.p. of a 1:80 dilution in PBS of a solution containing 25 g. tribromoethanol in 12.5 ml tertiary amyl alcohol. The mammary fat pad was cleaned with ethanol and a 10 mm incision was made directly above the site of injection. Mammary fat pad #4 could be observed beneath the skin after the incision was made. Using a 0.1 ml Hamilton syringe and 27 gauge 1/2\" needle, 10 μl of cell suspension, 1×10^5 cells in HBSS, are injected into the fat pad. The incision is closed using 1-2 Autoclips ([…], Clay Adams). Autoclips are removed 7 days post-injection and scarring is minimal.\nSix animals were injected for each condition, per experiment. Animals were earpunched after injection for subsequent identification. Beginning at day 10 and continuing every day until approximately day 30, the experimental animals were injected i.v. (tail vein) with 0.1 ml of the FICOLL conjugate. Primary tumor size was determined twice weekly by length×width×height measurement, and the animals are observed daily for general health. When the primary tumor of any animal exceeded 20 mm in any dimension, all of the animals were sacrificed. The presence of metastases was determined by gross autopsy and examination of H & E stained sections of any suspicious organ and step sections of the lungs and draining lymph nodes. The primary tumors were removed, stripped free of other tissues, and weighed. At any time during the experiment, animals suspected of being in distress were sacrificed and examined as above."}, "[7]": {"test": "Toxicity in nude mice", "format": "in vivo, mouse", "conditions": "free peptide, up to 10 mg/kg", "excerpt": "as §2\nBased on published studies of related peptide conjugates (Braatz J. A., Yashuda Y., Olden K., Yamada K. M., Heifetz A. H. (1993): Functional peptide-polyurethane conjugates with extended circulatory half lives. Bioconjugate Chem 4:262-267), the conjugates are predicted have circulating half lives on the order of 10 hours. Free peptides usually have circulating half lives of less than 10 minutes, based on published results. The short half lives were due to clearance or stability of the peptides in plasma. Use of nonhydrolyzable amino acid analogs or capping modifications of the peptides decreases sensitivity to degradation."}, "[8]": {"test_system": "AIDS-KS lesion", "test": "Kaposi's sarcoma angiogenic lesion formation in nude mice", "format": "in vivo", "conditions": "intravenous, nude mouse", "protocol": "For determination of In vivo Angiogenesis, 2×10^6 AIDS-KS cells suspended in phosphate buffered saline without calcium and magnesium (PBS w/o), passage 6-8, were transplanted subcutaneously on day 0 of the flanks of male Balb/c nu/nu athymic mice. The animals were injected intravenously with increasing dilutions of TSP peptide-FICOLL conjugates or the equivalent concentrations of FICOLL mixed in PBS w/o as a control from days 1-5. On day 6 the angiogenic lesions were observed, measured, fixed in 10% formalin, and stained with hematoxylin-eosin."}, "[9]": {"test_system": "bovine corneal endothelial cells", "format": "cell-based", "protocol": "Corneal bovine endothelial cells (BCE cells) were used at passages 2 through 8 (Munjal et al., 1990). BCE cell cultures were maintained in DMEM (low glucose), containing 10% FCS, 4 mM glutamine, 2.5 μg/ml amphotericin B, and 500 U/ml each of penicillin G potassium and streptomycin sulfate (all media components were from Biofluids Inc., Rockville, Md.). BCE cells were grown at 34° in 5% CO2. The media were changed every 2-3 days.\nas §1"}, "[10]": {"conditions": "polysucrose/FICOLL conjugate, intravenous"}},
  "note": "Square brackets hold non-standard residues; d marks the D form. Ends that are not written are not given here. Peptide text beside a SMILES is read from it.",
  "data": [
    {"compound": "TSP: thrombospondin purified from thrombin-stimulated human platelets", "values": [
      {"measurement": "inhibition of AIDS-KS cell proliferation, in words", "setting": "[1]", "value": "concentration dependent decrease in cell number"},
      {"measurement": "stimulation of AIDS-KS cell motility", "setting": "[2]; added in the lower well", "value": "dose-dependent stimulation of AIDS-KS cell motility"},
      {"measurement": "IC50", "setting": "[2]; added with OSM, read-out: IC50 inhibition of OSM stimulated migration", "value": "< 0.11", "unit": "µM"}
    ]},
    {"compound": "CC(=O)N[C@H](CS)C(=O)N[C@H](CO)C(=O)N[C@H](CO)C(=O)N[C@H](Cc1c[nH]c2ccccc12)C(=O)N1CCC[C@@H]1C(=O)N[C@H](CO)C(=O)N[C@H](Cc1c[nH]c2ccccc12)C(=O)N[C@H](Cc1c[nH]cn1)C(=O)N[C@H](CO)C(=O)N[C@H](Cc1c[nH]c2ccccc12)C(=O)NCC(=O)NCC(=O)N[C@H](CC(=O)O)C(=O)N[C@H](CCC(N)=O)C(=O)N[C@H](CCCCN)C(=O)N[C@H](Cc1ccccc1)C(=O)N[C@H](CCCNC(=N)N)C(=O)N[C@H](CCCCN)C(N)=O", "note": "[Peptide 416, ri-amKRFKQDGGWSHWSPWSSCac] (Ac-[dC][dS][dS][dW][dP][dS][dW][dH][dS][dW]GG[dD][dQ][dK][dF][dR][dK]-NH2)", "values": [
      {"measurement": "inhibition of thrombospondin binding to heparin, in words", "setting": "[3]; FICOLL conjugate", "value": "active"},
      {"measurement": "inhibition of thrombospondin binding to heparin, in words", "setting": "[3]; free peptide", "value": "retains heparin-binding activity"},
      {"measurement": "inhibition of thrombospondin binding to heparin, in words", "setting": "[3]; free peptide, listed as all D-acCSSWPSWHSWGGDQKFRKam", "value": "retained full activity"},
      {"measurement": "activity relative to the native sequence", "setting": "[3]; free retro-inverso peptide", "value": "approximately three-fold less"},
      {"measurement": "IC50", "setting": "[3]; retro-inverso peptides, free, read-out: IC50 Inhibitory Activity, Free Peptide", "value": 0.4, "unit": "µM"},
      {"measurement": "inhibition of aortic endothelial cell proliferation, in words", "setting": "[4]", "value": "significantly inhibit proliferation"},
      {"measurement": "inhibition of MDA MB435 proliferation, in words", "setting": "[5]", "value": "substantial inhibition of MDA cell proliferation"},
      {"measurement": "tumor growth, dose response", "setting": "[6]; 0.2 to 6 mg/kg, treatment with 6 mg/kg", "value": "maximal inhibition of tumor growth"},
      {"measurement": "tumor growth", "setting": "[6]; free peptide, daily intravenous, 2 mg/kg", "value": "significantly inhibited tumor growth"},
      {"measurement": "tumor growth", "setting": "[6]; [10]", "value": "No significant inhibition of tumor growth"},
      {"measurement": "toxicity", "setting": "[7]", "value": "without overt toxicity"}
    ]},
    {"compound": "364f: KRFKQDGGWSHWSPWSSC conjugated to FICOLL, several preparations (also: conjugated to FICOLL) [Peptide 364f]", "values": [
      {"measurement": "tumor growth", "setting": "[6]; [10]", "value": "delays tumor growth"},
      {"measurement": "AIDS-KS lesion formation", "setting": "[8]", "value": "strongly inhibited AIDS-KS lesion formation"}
    ]},
    {"compound": "N=C(N)NCCC[C@H](NC(=O)[C@@H](N)CCCCN)C(=O)N[C@@H](Cc1ccccc1)C(=O)N[C@@H](CCCCN)C(=O)N[C@@H](CCC(N)=O)C(=O)N[C@@H](CC(=O)O)C(=O)NCC(=O)NCC(=O)N[C@@H](Cc1c[nH]c2ccccc12)C(=O)N[C@@H](CO)C(=O)N[C@@H](Cc1c[nH]cn1)C(=O)N[C@@H](Cc1c[nH]c2ccccc12)C(=O)N[C@@H](CO)C(=O)N1CCC[C@H]1C(=O)N[C@@H](Cc1c[nH]c2ccccc12)C(=O)N[C@@H](CO)C(=O)N[C@@H](CO)C(=O)O", "note": "[Peptide 246, KRFKQDGGWSHWSPWSS] (H-KRFKQDGGWSHWSPWSS-OH)", "values": [
      {"measurement": "IC50", "setting": "[9]", "value": 40, "unit": "µM"}
    ]}
  ]
}
